Test results from PubChem BioAssay AID256 (DTP/NCI, 2004).
Several values for one entry are separate records, joined by “and”; a condition that tells them apart may be missing. Identical values can stand only once. Inconclusive results and toxic doses are left out.

Test system: CD2F1 mice, L1210 leukemia ip, survival T/C
Assay: NCI In Vivo Anticancer Drug Screen. Data for tumor model L1210 Leukemia (intraperitoneal) in CD2F1 (CDF1) mice
Conditions: higher = longer survival
How it was run: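 Ratio T/C, where T is the treated-group value and C the vehicle-dosed control value, from mice implanted with a transplantable tumor.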

[1] = endpoint: mean survival time, dose: 100.0 mg/kg/injection, schedule: Q01DX009 (ip), vehicle: saline
[2] = endpoint: mean survival time, dose: 200.0 mg/kg/injection, schedule: Q01DX009 (ip), vehicle: saline
[3] = endpoint: mean survival time, dose: 100.0 mg/kg/injection, schedule: Q04DX003 (ip), vehicle: saline with Tween-80
[4] = endpoint: mean survival time, dose: 200.0 mg/kg/injection, schedule: Q04DX003 (ip), vehicle: saline with Tween-80
[5] = endpoint: mean survival time, dose: 400.0 mg/kg/injection, schedule: Q04DX003 (ip), vehicle: saline with Tween-80
[6] = endpoint: mean survival time, dose: 100.0 mg/kg/injection, schedule: Q04DX002 (ip), vehicle: saline with Tween-80
[7] = endpoint: mean survival time, dose: 100.0 mg/kg/injection, schedule: Q01DX009 (ip), vehicle: Klucel (hydroxypropylcellulose) (HPC)
[8] = endpoint: mean survival time, dose: 200.0 mg/kg/injection, schedule: Q01DX009 (ip), vehicle: Klucel (hydroxypropylcellulose) (HPC)
[9] = endpoint: mean survival time, dose: 400.0 mg/kg/injection, schedule: Q01DX009 (ip), vehicle: Klucel (hydroxypropylcellulose) (HPC)
[10] = endpoint: mean survival time, dose: 100.0 mg/kg/injection, schedule: Q01DX001 (ip), vehicle: saline with Tween-80
[11] = endpoint: mean survival time, dose: 200.0 mg/kg/injection, schedule: Q01DX001 (ip), vehicle: saline with Tween-80
[12] = endpoint: mean survival time, dose: 400.0 mg/kg/injection, schedule: Q01DX001 (ip), vehicle: saline with Tween-80
[13] = endpoint: mean survival time, dose: 75.0 mg/kg/injection, schedule: Q01DX009 (ip), vehicle: saline with Tween-80

With CC(C)(C)c1cccc(C(C)(C)C)c1O the T/C [1] was 95 % of control, the T/C [2] was 94 % of control and the T/C (endpoint: mean survival time, dose: 400.0 mg/kg/injection, schedule: Q01DX009 (ip), vehicle: saline) was 106 % of control.

For CC(=O)N1c2cc3ccccc3cc2N(C(C)=O)c2cc3ccccc3cc21, the T/C [3] was 103 % of control, the T/C [4] was 103 % of control and the T/C [5] was 107 % of control.

For CCOC(=O)Nc1cc(N)c2ncc(-c3ccc(Cl)cc3)nc2n1, the T/C [3] was 91 % of control, the T/C [4] was 91 % of control and the T/C [5] was 95 % of control.

With O=C1c2ccccc2C(=O)N1c1ccccc1-c1ccccc1 the T/C [3] was 100 % of control, the T/C [4] was 92 % of control and the T/C [5] was 100 % of control.

For CC(=O)C(CNCC(=O)O)(CNCC(=O)O)C(C)=O, the T/C (endpoint: mean survival time, dose: 25.0 mg/kg/injection, schedule: Q04DX002 (ip), vehicle: saline with Tween-80) was 90 % of control, the T/C (endpoint: mean survival time, dose: 50.0 mg/kg/injection, schedule: Q04DX002 (ip), vehicle: saline with Tween-80) was 94 % of control and the T/C [6] was 94 % of control.

In the case of CC(=O)N(C)c1ccc(NC(=O)Nc2ccc(C)cc2[N+](=O)[O-])cc1, the T/C [7] is reported as 95 % of control, the T/C [8] is reported as 92 % of control and the T/C [9] is reported as 92 % of control.

For CC(=O)OC1C(OC(C)=O)C(OC(C)=O)C(OS(C)(=O)=O)C(OC(=O)c2ccccc2)C1OC(C)=O (centres undefined), the T/C [7] was 96 % of control, the T/C [8] was 86 % of control and the T/C [9] was 91 % of control.

In the case of Cc1ccc([N+](=O)[O-])cc1NC(=O)Oc1ccc2c(C)cc(=O)oc2c1, the T/C (endpoint: mean survival time, dose: 100.0 mg/kg/injection, schedule: Q04DX002 (ip), vehicle: Klucel (hydroxypropylcellulose) (HPC)) is reported as 92 % of control, the T/C (endpoint: mean survival time, dose: 200.0 mg/kg/injection, schedule: Q04DX002 (ip), vehicle: Klucel (hydroxypropylcellulose) (HPC)) is reported as 100 % of control and the T/C (endpoint: mean survival time, dose: 400.0 mg/kg/injection, schedule: Q04DX002 (ip), vehicle: Klucel (hydroxypropylcellulose) (HPC)) is reported as 87 % of control.

In the case of COc1cc(OC)c(/C=C/c2ccc3ccccc3[n+]2C)c(OC)c1, the T/C (endpoint: mean survival time, dose: 0.31 mg/kg/injection, schedule: Q01DX009 (ip), vehicle: saline) is reported as 103 % of control, the T/C (endpoint: mean survival time, dose: 0.62 mg/kg/injection, schedule: Q01DX009 (ip), vehicle: saline) is reported as 114 % of control and the T/C (endpoint: mean survival time, dose: 1.25 mg/kg/injection, schedule: Q01DX009 (ip), vehicle: saline) is reported as 121 % of control.

O=C(C=C(C(F)(F)Cl)C(F)(F)Cl)c1cccs1 was tested, and the T/C (endpoint: mean survival time, dose: 5.0 mg/kg/injection, schedule: Q04DX003 (ip), vehicle: saline) was 98 % of control, the T/C (endpoint: mean survival time, dose: 10.0 mg/kg/injection, schedule: Q04DX003 (ip), vehicle: saline) was 104 % of control and the T/C (endpoint: mean survival time, dose: 20.0 mg/kg/injection, schedule: Q04DX003 (ip), vehicle: saline) was 103 % of control.

With COc1cc([N+](=O)[O-])ccc1NC(=O)Nc1nccs1 the T/C (endpoint: mean survival time, dose: 50.0 mg/kg/injection, schedule: Q01DX009 (ip), vehicle: saline with Tween-80) was 96 % of control and 97 % of control, the T/C [10] was 97 % of control and the T/C [6] was 87 % of control. The T/C [3] was 98 % of control, the T/C [11] was 92 % of control and the T/C (endpoint: mean survival time, dose: 200.0 mg/kg/injection, schedule: Q01DX009 (ip), vehicle: saline with Tween-80) was 95 % of control and 100 % of control and 104 % of control. The T/C (endpoint: mean survival time, dose: 200.0 mg/kg/injection, schedule: Q04DX002 (ip), vehicle: saline with Tween-80) was 95 % of control, the T/C [4] was 95 % of control and the T/C [12] was 100 % of control. The T/C (endpoint: mean survival time, dose: 400.0 mg/kg/injection, schedule: Q01DX009 (ip), vehicle: saline with Tween-80) was 97 % of control, the T/C (endpoint: mean survival time, dose: 400.0 mg/kg/injection, schedule: Q04DX002 (ip), vehicle: saline with Tween-80) was 102 % of control and the T/C [5] was 101 % of control.

C[n+]1ccc(Nc2ccc(NC(=O)c3ccc(Nc4cc[n+](C)c5ccc([N+](=O)[O-])cc45)cc3[N+](=O)[O-])cc2)cc1 was tested, and the T/C (endpoint: mean survival time, dose: 79.0 mg/kg/injection, schedule: Q04DX003 (ip), vehicle: saline with Tween-80) was 122 % of control, the T/C [3] was 113 % of control and the T/C (endpoint: mean survival time, dose: 178.0 mg/kg/injection, schedule: Q04DX003 (ip), vehicle: saline with Tween-80) was 152 % of control. The T/C (endpoint: mean survival time, dose: 266.0 mg/kg/injection, schedule: Q04DX003 (ip), vehicle: saline with Tween-80) was 177 % of control and 187 % of control.

In the case of NC(=S)N/N=C/c1nccc2ccccc12, the T/C (endpoint: mean survival time, dose: 6.25 mg/kg/injection, schedule: Q01DX010 (oral), vehicle: saline) is reported as 97 % of control, the T/C (endpoint: mean survival time, dose: 15.0 mg/kg/injection, schedule: Q01DX006 (iv), vehicle: saline) is reported as 100 % of control and the T/C (endpoint: mean survival time, dose: 25.0 mg/kg/injection, schedule: Q01DX009 (sc), vehicle: saline) is reported as 97 % of control. For the same molecule, the T/C (endpoint: mean survival time, dose: 30.0 mg/kg/injection, schedule: Q01DX006 (iv), vehicle: saline) was 100 % of control, the T/C (endpoint: mean survival time, dose: 50.0 mg/kg/injection, schedule: Q01DX001 (sc), vehicle: saline) was 98 % of control and the T/C (endpoint: mean survival time, dose: 50.0 mg/kg/injection, schedule: Q01DX009 (sc), vehicle: saline) was 103 % of control. The T/C [13] was 110 % of control, the T/C (endpoint: mean survival time, dose: 168.0 mg/kg/injection, schedule: Q01DX Z (ip), vehicle: saline) was 86 % of control and the T/C (endpoint: mean survival time, dose: 200.0 mg/kg/injection, schedule: Q01DX001 (sc), vehicle: saline) was 100 % of control. For the same molecule, the T/C (endpoint: mean survival time, dose: 360.0 mg/kg/injection, schedule: Q01DX001 (ip), vehicle: saline) was 110 % of control.

For O=c1[nH]cc(F)c(=O)[nH]1.[Tl], the T/C (endpoint: mean survival time, dose: 1.5 mg/kg/injection, schedule: Q01DX009 (ip), vehicle: water) was 106 % of control, the T/C (endpoint: mean survival time, dose: 3.1 mg/kg/injection, schedule: Q01DX009 (ip), vehicle: water) was 112 % of control and the T/C (endpoint: mean survival time, dose: 6.25 mg/kg/injection, schedule: Q01DX009 (ip), vehicle: water) was 124 % of control. The T/C (endpoint: mean survival time, dose: 12.5 mg/kg/injection, schedule: Q01DX009 (ip), vehicle: water) was 91 % of control.

With O=S(=O)(c1cccc(N=C=S)c1)c1cccc(N=C=S)c1 the T/C (endpoint: median survival time, dose: 6.25 mg/kg/injection, schedule: Q01DX009 (ip), vehicle: Klucel (hydroxypropylcellulose) (HPC)) was 101 % of control, the T/C (endpoint: median survival time, dose: 12.5 mg/kg/injection, schedule: Q01DX009 (ip), vehicle: Klucel (hydroxypropylcellulose) (HPC)) was 109 % of control and the T/C (endpoint: median survival time, dose: 25.0 mg/kg/injection, schedule: Q01DX009 (ip), vehicle: Klucel (hydroxypropylcellulose) (HPC)) was 118 % of control.

Cc1cccc(SCC(=O)O)c1 was tested, and the T/C (endpoint: mean survival time, dose: 100.0 mg/kg/injection, schedule: Q04DX003 (ip), vehicle: other) was 96 % of control, the T/C (endpoint: mean survival time, dose: 200.0 mg/kg/injection, schedule: Q04DX003 (ip), vehicle: other) was 96 % of control and the T/C (endpoint: mean survival time, dose: 400.0 mg/kg/injection, schedule: Q04DX003 (ip), vehicle: other) was 94 % of control.

CSC(SC)=C1C(=O)NC(=O)NC1=O was tested, and the T/C (endpoint: median survival time, dose: 3.12 mg/kg/injection, schedule: Q01DX009 (ip), vehicle: saline) was 101 % of control, the T/C (endpoint: median survival time, dose: 6.25 mg/kg/injection, schedule: Q01DX009 (ip), vehicle: saline) was 112 % of control and the T/C (endpoint: median survival time, dose: 12.5 mg/kg/injection, schedule: Q01DX009 (ip), vehicle: saline) was 109 % of control. The T/C (endpoint: median survival time, dose: 25.0 mg/kg/injection, schedule: Q01DX009 (ip), vehicle: saline) was 109 % of control and the T/C (endpoint: median survival time, dose: 50.0 mg/kg/injection, schedule: Q01DX009 (ip), vehicle: saline) was 116 % of control.

With Cc1cc(C)c(C)c(C(=O)C(=O)c2ccccc2)c1 the T/C (endpoint: mean survival time, dose: 75.0 mg/kg/injection, schedule: Q01DX001 (ip), vehicle: other) was 93 % of control, the T/C (endpoint: mean survival time, dose: 150.0 mg/kg/injection, schedule: Q01DX001 (ip), vehicle: other) was 94 % of control and the T/C (endpoint: mean survival time, dose: 300.0 mg/kg/injection, schedule: Q01DX001 (ip), vehicle: other) was 100 % of control.

In the case of O=C(O)C(O)C(O)C1[O][Sb][O]C1CO (centres undefined), the T/C (endpoint: mean survival time, dose: 50.0 mg/kg/injection, schedule: Q01DX001 (ip), vehicle: saline) is reported as 97 % of control, the T/C (endpoint: mean survival time, dose: 50.0 mg/kg/injection, schedule: Q01DX009 (ip), vehicle: saline) is reported as 95 % of control and the T/C (endpoint: mean survival time, dose: 50.0 mg/kg/injection, schedule: Q04DX003 (ip), vehicle: saline) is reported as 91 % of control. For the same molecule, the T/C (endpoint: mean survival time, dose: 100.0 mg/kg/injection, schedule: Q01DX001 (ip), vehicle: saline) was 93 % of control, the T/C [1] was 96 % of control and the T/C (endpoint: mean survival time, dose: 100.0 mg/kg/injection, schedule: Q04DX003 (ip), vehicle: saline) was 92 % of control. For the same molecule, the T/C (endpoint: mean survival time, dose: 200.0 mg/kg/injection, schedule: Q01DX001 (ip), vehicle: saline) was 98 % of control, the T/C [2] was 96 % of control and the T/C (endpoint: mean survival time, dose: 200.0 mg/kg/injection, schedule: Q04DX003 (ip), vehicle: saline) was 92 % of control.

In the case of O=C(Nc1cc(Cl)c(NC(=O)c2ccccc2)c(Cl)c1)c1ccccc1, the T/C [10] is reported as 96 % of control, the T/C [11] is reported as 89 % of control and the T/C [12] is reported as 86 % of control.

With CCCCOC(=O)c1ccc2c(ccc[n+]2C)c1 the T/C (endpoint: mean survival time, dose: 37.5 mg/kg/injection, schedule: Q01DX009 (ip), vehicle: saline with Tween-80) was 97 % of control, the T/C [13] was 103 % of control and the T/C (endpoint: mean survival time, dose: 150.0 mg/kg/injection, schedule: Q01DX009 (ip), vehicle: saline with Tween-80) was 107 % of control.
